# Results as given in patent US20230414509A1, “HYDROPHOBIC DRUGS IN ORGANIC CORE HIGH DENSITY LIPOPROTEIN (HDL) NANOPARTICLES” (NORTHWESTERN UNIVERSITY, priority 2020, published 2023).
# Legend:
# [1] = system: HH cells (cutaneous T cell lymphoma); experiment: Cytotoxicity IC50, MTS assay, HH cells; type: cell-based; settings: Homo sapiens, 72 hours after treatment, read-out: IC-50 values (in nM), HH
# Experimental: (§1) Specifically, the F7-loaded HDL NPs were tested for cytoxicity against two CTCL cell lines (HH and Hut78), a clear cell renal cell carcinoma cell line (786-O), an anaplastic large cell lymphoma (ALCL) cell line (SR-786), a breast adenocarcinoma cell line (MDA MB 231), a T-cell lymphoma cell line (Jurkat), a myeloma cell line (U266B1), and six prostate cancer cell lines (PC-3, Du-145, CWRR1 WT (wild-type), CWRR1 EnzR (Enzalutamide resistant), LnCap WT (wild type), and LnCap EnzR (Enzalutamide resistant)). The HH and HuT78 cell lines are SR-B1 positive and express p38γ. The SR-786, 786-O, and MDA MB 231 cell lines are also known to be SR-B1 positive. […] The PC-3 and Du-145 cell lines are SR-B1 positive, androgen receptor negative and PTEN null. The CWRR1 WT cell line is SR-B1 positive, androgen receptor positive and PTEN wild type. The CWRR1 EnzR, which is also SR-B1 positive, androgen receptor positive and PTEN wild type, is a prostate cancer cell line derived from patient with castration recurrent disease that is resistant to enzalutamide (a commonly used therapy for castration-resistant prostate cancer patients). The LnCap WT cell line is SR-B1 positive, androgen receptor positive and PTEN null. The LnCap EnzR, which is also SR-B1 positive, androgen receptor positive and PTEN null, is a prostate cancer cell line derived from a lymph node metastasis that is resistant to enzalutamide. […]
# [2] = system: HuT78 cells (cutaneous T cell lymphoma); experiment: Cytotoxicity IC50, MTS assay, HuT78 cells; type: cell-based; settings: Homo sapiens, 72 hours after treatment, read-out: IC-50 values (in nM), HuT78
# Experimental: as §1
# [3] = system: SR-786 cells (anaplastic large cell lymphoma); experiment: Cytotoxicity IC50, MTS assay, SR-786 cells; type: cell-based; settings: 72 hours after treatment, read-out: IC-50 values (in nM), SR-786
# Experimental: as §1
# [4] = system: 786-O cells (clear cell renal cell carcinoma); experiment: Cytotoxicity IC50, MTS assay, 786-O cells; type: cell-based; settings: Homo sapiens, 786-0, 72 hours after treatment, read-out: IC-50 values (in nM), 786-O
# Experimental: as §1
# [5] = system: MDA MB 231 cells (breast adenocarcinoma); experiment: Cytotoxicity IC50, MTS assay, MDA MB 231 cells; type: cell-based; settings: Homo sapiens, 72 hours after treatment, read-out: IC-50 values (in nM), MDA MB 231
# Experimental: as §1
# [6] = system: Jurkat cells (T-cell lymphoma); experiment: Cytotoxicity IC50, MTS assay, Jurkat cells; type: cell-based; settings: Homo sapiens, Jurkat cells (SR-B1 negative), 72 hours after treatment, read-out: IC-50 values (in nM), Jurkat
# Experimental: as §1
# U266B1 cells (myeloma) = experiment: Cytotoxicity IC50, MTS assay, U266B1 cells; type: cell-based; settings: U266B1 cells (SR-B1 negative), 72 hours after treatment, read-out: IC-50 values (in nM), U266B1
# Experimental: as §1
# [7] = system: PC-3 cells (prostate cancer); experiment: Cytotoxicity IC50, MTS assay, PC-3 cells; type: cell-based; settings: Homo sapiens, 72 hours after treatment, read-out: IC-50 values (in nM), PC-3
# Experimental: as §1
# [8] = system: Du-145 cells (prostate cancer); experiment: Cytotoxicity IC50, MTS assay, Du-145 cells; type: cell-based; settings: Homo sapiens, 72 hours after treatment, read-out: IC-50 values (in nM), Du-145
# Experimental: as §1
# [9] = system: CWRR1 WT cells (prostate cancer); experiment: Cytotoxicity IC50, MTS assay, CWRR1 WT cells; type: cell-based; settings: 72 hours after treatment, read-out: IC-50 values (in nM), CWRR1 WT
# Experimental: as §1
# [10] = system: CWRR1 EnzR cells (prostate cancer, Enzalutamide resistant); experiment: Cytotoxicity IC50, MTS assay, CWRR1 EnzR cells; type: cell-based; settings: 72 hours after treatment, read-out: IC-50 values (in nM), CWRR1 EnzR
# Experimental: as §1
# [11] = system: LnCap WT cells (prostate cancer); experiment: Cytotoxicity IC50, MTS assay, LnCap WT cells; type: cell-based; settings: Homo sapiens, 72 hours after treatment, read-out: IC-50 values (in nM), LnCap WT
# Experimental: as §1
# [12] = system: LnCap EnzR cells (prostate cancer, Enzalutamide resistant); experiment: Cytotoxicity IC50, MTS assay, LnCap EnzR cells; type: cell-based; settings: Homo sapiens, 72 hours after treatment, read-out: IC-50 values (in nM), LnCap EnzR
# Experimental: as §1
# Hut78 cells = experiment: Cytotoxic impact of F7 on Hut78 cells (screening); type: cell-based; settings: Homo sapiens
# Text: Cutaneous T cell lymphoma (CTCL) is a disfiguring and aggressive cancer. For patients with advanced disease, current therapies are inadequate, and outcome is poor. Incomplete understanding of CTCL molecular regulators has limited development of effective targeted therapies. One candidate regulator is p38gamma (p38γ), a mitogen-activated protein kinase downstream from the T cell receptor that is crucial for T cell activity and growth. […] In addition, only p38γ has been identified as essential protein for CTCL growth among the four p38 isoforms by gene knockdown experiments, which makes p38γ an ideal target for the therapeutic drug development in this particular T cell lymphoma.
# 780 cells (renal cancer) = experiment: Cytotoxicity IC50 in renal cancer cell line 780; type: cell-based
# Experimental: (§2) A database analysis was performed and a survival curve for the renal cancer was found showing a separation (p=0.000084) among summarized 877 renal cancer patients by p38γ gene expression level (high vs low). […] All 8 renal cancer cell lines have higher p38γ protein expression level than that of normal HK2 renal cells by western blot experiments (FIG. 3B).
# [13] = system: ACHN cells (renal cancer); experiment: Cytotoxicity IC50 in renal cancer cell line ACHN; type: cell-based; settings: Homo sapiens
# Experimental: as §2
# [14] = system: HH cell line (SR-B1 positive); experiment: 2 hr pulse treatment, MTS viability, SR-B1 positive HH cell line; type: cell-based; settings: free F7 250 nM or 2.5 μM for 2 hrs, washed, 72 hours, MTS assay
# Experimental: (§3) Following treatment, the cells were washed with fresh media and plated into 96-well plates. The cells were then incubated for 72 hours prior to viability assay (MTS assay).
# [15] = system: U266B1 cell line (SR-B1 negative); experiment: 2 hr pulse treatment, MTS viability, SR-B1 negative U266B1 cell line; type: cell-based; settings: free F7 250 nM or 2.5 μM for 2 hrs, washed, 72 hours, MTS assay
# Experimental: as §3
# HepG2 cells = experiment: Cell-based toxicity screen, HepG2 cells, MTS viability; settings: F7 1 μM for 2 hrs, washed, 72 hours, MTS assay
compound,measurement,setting,value
"Cc1ccc([N+](=O)[O-])cc1S(=O)(=O)N(C)/N=C/c1cnc2ccc(Br)cn12.Cl [F7, PIK75]",IC50,[1],41.3 nM
same,IC50,[2],45.6 nM
same,IC50,[3],12.6 nM
same,IC50,[4],283 nM
same,IC50,[5],688 nM
same,IC50,[6],116 nM
same,IC50,U266B1 cells (myeloma),44.1 nM
same,IC50,[7],28.1 nM
same,IC50,[8],84.7 nM
same,IC50,[9],15.9 nM
same,IC50,[10],24.7 nM
same,IC50,[11],53 nM
same,IC50,[12],75.5 nM
same,IC50,Hut78 cells,33 nM
same,IC50,780 cells (renal cancer),33 nM
same,IC50,[13],17 nM
same,"cytotoxicity, HH cell line, free F7",[14],unable to cause cytotoxicity
same,"cytotoxicity, U266B1 cell line, free F7",[15],unable to cause cytotoxicity
same,"cytotoxicity, HepG2 cells, free F7",HepG2 cells,mild levels of cytotoxicity
